Values of other authors, collected in patent publication US10545077B2, “Solid phase microextraction coating” (JP SCIENTIFIC LIMITED, priority 2016, dated 2020).

| SMILES | LogP |
| --- | --- |
| CC(C)NCC(O)COc1ccc(COCCOC(C)C)cc1 (stereo not drawn) [Bisoprolol] | 1.87 |
| CCCC1O[C@@H]2C[C@H]3[C@@H]4CCC5=CC(=O)C=C[C@]5(C)[C@H]4[C@@H](O)C[C@]3(C)[C@]2(C(=O)CO)O1 (stereo partly drawn) [Budesonide] | 2.42 |
| C[C@]12C=CC(=O)C=C1CC[C@@H]1[C@@H]2[C@@H](O)C[C@@]2(C)[C@H]1CC[C@]2(O)C(=O)CO [Prednisolone] | 1.66 |
